Experimental data taken from patent US5705504A, “Piperidine derivatives with PAF antagonist activity” (J. Uriach & Cia, S.A., priority 1994, dated 1998).

Key:
PAF-induced Hypotension = assay: Inhibition of PAF-induced Hypotension in Normotensive Rats; type: in vivo, male Sprague-Dawley rats; conditions: anesthetized normotensive rats, i.v. 3 min. before PAF (0.5 μg/Kg), dose inhibiting hypotension by 50%; for ED50: Rattus norvegicus, iv, 0.05 h, read-out: ID50 (the source's name)
Protocol: Inhibition of PAF-induced Hypotension in Normotensive Rats.
Male Sprague-Dawley rats, weighing 180-220 g, were anesthetized with sodium pentobarbital (50 mg/Kg i.p.). Blood pressure was recorded from the left carotid artery using a Statham pressure transducer coupled to a Beckman R611 recorder. Right and left fernoral veins were catheterized to inject test compounds and PAF (0.5 μg/Kg). Test compounds were administered by intravenous injection (1 mL/Kg, dissolved in saline) 3 min. before PAF. Blood pressure was monitored and percent inhibition of PAF-induced hypotension with respect to controls was calculated.

[1] = system: Platelet Aggregation Induced by PAF (platelet rich plasma); assay: Inhibition of Platelet Aggregation Induced by PAF; type: cell-based, male New Zealand rabbits; conditions: rabbit platelet rich plasma, aggregation induced by C18-PAF (15 nM)
Protocol: Inhibition of Platelet Aggregation Induced by PAF.
Platelet rich plasma (PRP) was prepared by centrifuging the blood at 250 xg for 10 min. at 4° C. The PRP was diluted with platelet-poor plasma (PPP) obtained by further centrifuging at 3000 xg for 10 min. The platelet count was adjusted to 3×10^5cells/mm^3.

Compound | IC50 ([1]; Oryctolagus cuniculus) [nM] | ED50 (PAF-induced Hypotension) [mg/kg] | ID50 (PAF-induced Hypotension) [mg/kg] | IC50 [1] [nM]
Cc1nc2cnccc2n1CC1CCN(C(=O)/C=C(/c2ccccc2)c2ccc(N)cc2)CC1 [Compound 17a, cis-1-[[1-[3-(4-Aminophenyl)-3-phenylpropenoyl]-4-piperidyl]methyl]-1H-2-methylimidazo[4,5-c]pyridine] | – | – | 0.029 | 18
Cc1nc2cnccc2n1CC1CCN(C(=O)/C=C(\c2ccccc2)c2ccc(N)cc2)CC1 [Compound 17b, trans-1-[[1-[3-(4-Aminophenyl)-3-phenylpropenoyl]-4-piperidyl]methyl]-1H-2-methylimidazo[4,5-c]pyridine] | – | – | 0.01 to 0.025 | 5
Cc1nc2cnccc2n1CC1CCN(C(=O)C=C(c2ccccc2)c2cccc(N)c2)CC1 [Compound 30, cis and trans-1-[[1-[3-(3-Aminophenyl)-3-phenylpropenoyl]-4-piperidyl]methyl]-1H-2-methylimidazo[4,5-c]pyridine] | – | 0.015 | – | –
CCOC(=O)[C@@H](NC(=O)N1CCC(Cn2c(C)nc3cnccc32)CC1)c1ccccc1 [Compound 39, (S)-1-[[1-[[N-(1-Ethoxycarbonyl-1-phenylmethyl)amino]carbonyl]-4-piperidyl]methyl]-1H-2-methylimidazo[4,5-c]pyridine] | 16 | – | – | –
Cc1nc2cnccc2n1CC1CCN(C(=O)CC(C)(C)c2ccc(N)cc2)CC1 [Compound 44, 1-[[1-[3-(4-Aminophenyl)-3-methylbutanoyl]-4-piperidyl]methyl]-1H-2-methylimidazo[4,5-c]pyridine] | 19 | – | – | –
Cc1nc2cnccc2n1CC1CCN(C(=O)CC(O)(c2ccccc2)C(F)(F)F)CC1 (stereo not drawn) [Compound 47] | 36 | 0.013 | – | –
Cc1nc2cnccc2n1CC1CCN(C(=O)NC2(c3ccccc3)CC2)CC1 [Compound 59, 1-[[1-[(1-Phenyl-1-cyclopropylamino)carbonyl]-4-piperidyl]methyl]-1H-2-methylimidazo[4,5-c]pyridine] | 17 | 0.021 | – | –
CCOC[C@@H](NC(=O)N1CCC(Cn2c(C)nc3cnccc32)CC1)c1ccccc1 [Compound 60, (S)-1-[[1-[(2-Ethoxy-1-phenylethylamino)carbonyl]-4opiperidyl]methyl]-1H-2-methylimidazo[4,5-c]pyridine] | 17 | 0.019 | – | –
Cc1nc2cnccc2n1CC1CCN(C(=O)OCC2(c3ccccc3)CC2)CC1 [Compound 70, 1-[[1-[[(1-Phenyl-1-cyclopropyl)methoxy]carbonyl]-4-piperidyl]methyl]-1H-2-methylimidazo[4,5-c]pyridine] | 34 | 0.014 | – | –

Now from value to molecule, other results behind:

IC50 ([1]; Oryctolagus cuniculus) [nM] | Compound | ED50 (PAF-induced Hypotension) [mg/kg] | ID50 (PAF-induced Hypotension) [mg/kg] | IC50 [1] [nM]
7.6 | Cc1nc2cnccc2n1CC1CCN(C(=O)CC(c2ccccc2)c2ccccc2)CC1 [Compound 1, 1-[[1-(3,3-Diphenylpropionyl)-4-piperidyl]methyl]-1H-2-methylimidazo[4,5-c]pyridine] | 0.0086 | – | –
9.2 | Cc1nc2cnccc2n1CC1CCN(C(=O)C=C(c2ccccc2)c2ccc([N+](=O)[O-])cc2)CC1 [Compound 16, cis and trans-1-[[1-[3-(4-Nitrophenyl)-3-phenylpropenoyl]-4-piperidyl]methyl]-1H-2-methylimidazo[4,5-c]pyridine] | – | – | –
6.9 | Cc1nc2cnccc2n1CC1CCN(C(=O)CC(C)(O)c2ccccc2)CC1 (stereo not drawn) [Compound 21, 1-[[1-(3-Hydroxy-3-phenylbutanoyl)-4-piperidyl]methyl]-1H-2-methylimidazo[4,5-c]pyridine] | 0.043 | – | –
11 | Cc1nc2cnccc2n1CC1CCN(C(=O)CC(C)c2ccc(N)cc2)CC1 (stereo not drawn) [Compound 23, 1-[[1-[3-(4-Aminophenyl)butanoyl]-4-piperidyl]methyl]-1H-2-methylimidazo[4,5-c]pyridine] | – | – | –
11 | CCCC(CC(=O)N1CCC(Cn2c(C)nc3cnccc32)CC1)c1ccccc1 (stereo not drawn) [Compound 32, 1-[[1-(3-Phenylhexanoyl)-4-piperidyl]methyl]-1H-2-methylimidazo[4,5-c]pyridine] | 0.0079 | – | –
12 | Cc1nc2cnccc2n1CC1CCN(C(=O)CC(C)c2ccccc2)CC1 (stereo not drawn) [Compound 40, 1-[[1-(3-Phenylbutanoyl)-4-piperidyl]methyl]-1H-2-methylimidazo[4,5-c]pyridine] | 0.033 | – | –
6.7 | Cc1nc2cnccc2n1CC1CCN(C(=O)CC(C)(C)c2ccccc2)CC1 [Compound 41, 1-[[1-(3-Methyl-3-phenylbutanoyl)-4-piperidyl]methyl]-1H-2-methylimidazo[4,5-c]pyridine] | 0.012 | – | –
13 | Cc1nc2cnccc2n1CC1CCN(C(=O)N[C@H](C)c2ccccc2)CC1 [Compound 50, (R)-1-[[1-[(1-Phenylethylamino)carbonyl]-4-piperidyl]methyl]-1H-2-methylimidazo[4,5-c]pyridine] | 0.017 | – | –
6.2 | Cc1nc2cnccc2n1CC1CCN(S(=O)(=O)CC(C)(C)c2ccccc2)CC1 [Compound 61, 1-[[1-[(2-Methyl-2-phenylpropyl)sulfonyl]-4-piperidyl]methyl]-1H-2-methylimidazo[4,5-c]pyridine] | – | – | –
